From paper PMC4165445 (Biochemistry, 2014)

Assays:
ERK = conditions: read-out: KD (μM) ERK; docking motif peptide binding to ERK; cited from earlier work
p38 = conditions: read-out: KD (μM) p38; docking motif peptide binding to p38; cited from earlier work
JNK = conditions: read-out: KD (μM) JNK; docking motif peptide binding to JNK; cited from earlier work
p38β [1] = molecular target: T1, p38β (Homo sapiens, UniProt Q15759); assay: Recombinant kinase assay, kinetic parameters of sensor phosphorylation; format: biochemical
T1 sequence (Q15759 whole entry): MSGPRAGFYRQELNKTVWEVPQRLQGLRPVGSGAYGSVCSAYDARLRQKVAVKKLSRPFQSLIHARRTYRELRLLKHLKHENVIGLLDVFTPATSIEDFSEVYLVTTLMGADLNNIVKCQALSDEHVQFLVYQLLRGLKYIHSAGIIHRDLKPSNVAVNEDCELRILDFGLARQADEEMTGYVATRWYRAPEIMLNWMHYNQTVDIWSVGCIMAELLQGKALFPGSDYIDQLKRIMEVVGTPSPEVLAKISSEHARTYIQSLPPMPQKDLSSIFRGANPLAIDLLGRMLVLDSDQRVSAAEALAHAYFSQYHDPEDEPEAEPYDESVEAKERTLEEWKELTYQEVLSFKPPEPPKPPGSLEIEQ

p38α [2] = molecular target: T2, p38α (Homo sapiens, UniProt Q16539); assay: as above; format: biochemical
T2 sequence (Q16539 whole entry): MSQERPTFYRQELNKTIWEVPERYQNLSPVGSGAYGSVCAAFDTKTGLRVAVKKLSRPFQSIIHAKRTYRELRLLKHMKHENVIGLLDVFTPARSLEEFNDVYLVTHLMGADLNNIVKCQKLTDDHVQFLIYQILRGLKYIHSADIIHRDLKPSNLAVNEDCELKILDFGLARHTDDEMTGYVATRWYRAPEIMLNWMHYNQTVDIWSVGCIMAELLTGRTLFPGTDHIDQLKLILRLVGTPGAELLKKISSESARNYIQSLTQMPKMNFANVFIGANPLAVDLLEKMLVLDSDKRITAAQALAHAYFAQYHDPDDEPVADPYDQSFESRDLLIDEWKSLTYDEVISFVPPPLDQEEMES

JNK3 = JNK3 (Homo sapiens, UniProt P53779); assay: as above; format: biochemical
JNK3, sequence (P53779 whole entry): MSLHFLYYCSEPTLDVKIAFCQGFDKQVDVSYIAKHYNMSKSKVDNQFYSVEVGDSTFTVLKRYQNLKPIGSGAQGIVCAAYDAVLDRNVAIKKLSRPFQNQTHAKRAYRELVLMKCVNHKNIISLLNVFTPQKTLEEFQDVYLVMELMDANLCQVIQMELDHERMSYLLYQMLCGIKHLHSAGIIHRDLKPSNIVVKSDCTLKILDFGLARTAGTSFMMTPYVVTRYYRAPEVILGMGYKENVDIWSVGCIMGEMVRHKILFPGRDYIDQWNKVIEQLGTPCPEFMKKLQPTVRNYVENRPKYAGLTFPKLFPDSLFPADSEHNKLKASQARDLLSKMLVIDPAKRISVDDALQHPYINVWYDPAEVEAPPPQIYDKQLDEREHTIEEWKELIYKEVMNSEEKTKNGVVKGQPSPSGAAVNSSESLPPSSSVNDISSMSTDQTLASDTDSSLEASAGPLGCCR

JNK2 = JNK2 (Homo sapiens, UniProt P45984); assay: as above; format: biochemical
JNK1 = JNK1 (Homo sapiens, UniProt P45983); assay: as above; format: biochemical
JNK1, sequence (P45983 whole entry): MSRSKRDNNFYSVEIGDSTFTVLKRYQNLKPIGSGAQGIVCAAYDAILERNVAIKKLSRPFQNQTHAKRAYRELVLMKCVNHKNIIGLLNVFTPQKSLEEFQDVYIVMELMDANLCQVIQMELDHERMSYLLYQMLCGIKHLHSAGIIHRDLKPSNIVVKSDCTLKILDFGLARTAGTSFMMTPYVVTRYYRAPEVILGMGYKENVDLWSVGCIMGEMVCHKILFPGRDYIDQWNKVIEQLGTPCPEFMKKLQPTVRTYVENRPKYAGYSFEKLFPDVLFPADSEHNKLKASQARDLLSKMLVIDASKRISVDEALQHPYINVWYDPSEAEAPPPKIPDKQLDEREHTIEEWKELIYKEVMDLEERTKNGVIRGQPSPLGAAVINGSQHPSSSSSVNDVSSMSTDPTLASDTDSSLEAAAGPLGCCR

off target kinases = assay: Kinase panel selectivity screen, JNK sensor, off target kinases; format: biochemical; conditions: 15 nM kinase, sensor at 2 × KM (3 μM), other MAP and non-MAP kinases
p38α [3] = molecular target: T2, p38α; assay: Kinase panel selectivity screen, ERK sensor crosstalk with p38α; format: biochemical; conditions: 15 nM kinase, sensor at 2 × KM (2.5 μM)
ERK2 = ERK2 (Homo sapiens, UniProt P28482); assay: Recombinant kinase assay, kinetic parameters of sensor phosphorylation; format: biochemical
ERK2, sequence (P28482 whole entry): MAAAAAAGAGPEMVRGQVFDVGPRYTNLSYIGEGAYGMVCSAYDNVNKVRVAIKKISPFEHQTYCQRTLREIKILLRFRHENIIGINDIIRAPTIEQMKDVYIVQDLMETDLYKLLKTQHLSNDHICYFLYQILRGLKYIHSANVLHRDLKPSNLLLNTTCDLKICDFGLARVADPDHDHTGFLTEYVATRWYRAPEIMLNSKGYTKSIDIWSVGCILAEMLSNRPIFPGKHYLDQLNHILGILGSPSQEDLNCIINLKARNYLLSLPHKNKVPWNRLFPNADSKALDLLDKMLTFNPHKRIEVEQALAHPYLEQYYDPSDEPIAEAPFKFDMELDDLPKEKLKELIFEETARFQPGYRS

p38β [4] = molecular target: T1, p38β; assay: Kinase panel selectivity screen, ERK sensor crosstalk with p38β; format: biochemical; conditions: 15 nM kinase, sensor at 2 × KM (2.5 μM)
ERK1 = ERK1 (Homo sapiens, UniProt P27361); assay: Recombinant kinase assay, kinetic parameters of sensor phosphorylation; format: biochemical
ERK1, sequence (P27361 whole entry): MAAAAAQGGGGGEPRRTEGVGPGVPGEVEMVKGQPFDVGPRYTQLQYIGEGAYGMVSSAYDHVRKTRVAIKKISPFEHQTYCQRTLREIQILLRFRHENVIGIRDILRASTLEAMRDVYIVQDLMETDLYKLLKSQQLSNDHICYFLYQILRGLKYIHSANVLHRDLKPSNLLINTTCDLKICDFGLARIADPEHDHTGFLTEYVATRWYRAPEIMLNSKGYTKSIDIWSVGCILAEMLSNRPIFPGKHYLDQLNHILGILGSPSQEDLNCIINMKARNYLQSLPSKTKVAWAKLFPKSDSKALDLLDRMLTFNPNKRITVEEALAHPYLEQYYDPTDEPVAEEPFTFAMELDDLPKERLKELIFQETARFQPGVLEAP

[5] = 1 mM ATP, pH 7.4, 30 °C, Sox fluorescence
[6] = recombinant JNK3, 1 mM ATP, pH 7.4, 30 °C, Sox fluorescence
[7] = recombinant JNK2, 1 mM ATP, pH 7.4, 30 °C, Sox fluorescence
[8] = recombinant JNK1, 1 mM ATP, pH 7.4, 30 °C, Sox fluorescence
[9] = recombinant ERK2, 1 mM ATP, pH 7.4, 30 °C, Sox fluorescence
[10] = recombinant ERK1, 1 mM ATP, pH 7.4, 30 °C, Sox fluorescence

ERPSRDHLYLPLEP [NFAT4]
Kd (ERK): > 100 µM | Kd (p38): > 100 µM | Kd (JNK): 7.1 µM

GKKRRKLLLPNSADEIKKIKI-PEG2-Triazole-PEG2-QP-Csox-ASPVV [p38α/β]
catalytic efficiency (min^–1 μM^–1) (p38β [1]): 282.9 min^–1 μM^–1 | Vmax (μmol min^–1 mg^–1) (p38β [1]; [5]): 0.84 ± 0.13 μmol min^–1 mg^–1 | kcat (min^–1) (p38β [1]; [5]): 39.6 ± 6.3 min^–1 | catalytic efficiency (min^–1 μM^–1) (p38α [2]): 298.7 min^–1 μM^–1 | Vmax (μmol min^–1 mg^–1) (p38α [2]; [5]): 1.37 ± 0.08 μmol min^–1 mg^–1 | kcat (min^–1) (p38α [2]; [5]): 92.6 ± 5.4 min^–1

ERPSRDHLYLPLEP-PEG2-SANLLSP-Csox-PA [JNK1/2/3]
catalytic efficiency (min^–1 μM^–1) (JNK3; recombinant JNK3): 9.4 min^–1 μM^–1 | Vmax (μmol min^–1 mg^–1) (JNK3; [6]): 0.35 ± 0.07 μmol min^–1 mg^–1 | kcat (min^–1) (JNK3; [6]): 26.6 ± 5.6 min^–1 | catalytic efficiency (min^–1 μM^–1) (JNK2; recombinant JNK2): 19.2 min^–1 μM^–1 | Vmax (μmol min^–1 mg^–1) (JNK2; [7]): 0.37 ± 0.02 μmol min^–1 mg^–1 | kcat (min^–1) (JNK2; [7]): 18.2 ± 1.3 min^–1 | catalytic efficiency (min^–1 μM^–1) (JNK1; recombinant JNK1): 5.4 min^–1 μM^–1 | Vmax (μmol min^–1 mg^–1) (JNK1; [8]): 0.38 ± 0.05 μmol min^–1 mg^–1 | kcat (min^–1) (JNK1; [8]): 17.9 ± 2.2 min^–1 | activity observed for any of the off target kinases (percentage of the target kinase) (off target kinases): ≤ 12.5%

GLKRVRRQALISSEIPKLQP-PEG2-Triazole-PEG2-VP-Csox-LTPGGRR [ERK1/2]
crosstalk with p38α (percentage of the target kinase) (p38α [3]): 10% | catalytic efficiency (min^–1 μM^–1) (ERK2; recombinant ERK2): 54.6 min^–1 μM^–1 | Vmax (μmol min^–1 mg^–1) (ERK2; [9]): 0.90 ± 0.01 μmol min^–1 mg^–1 | kcat (min^–1) (ERK2; [9]): 62.8 ± 0.7 min^–1 | crosstalk with p38β (percentage of the target kinase) (p38β [4]): 17% | catalytic efficiency (min^–1 μM^–1) (ERK1; recombinant ERK1): 26.2 min^–1 μM^–1 | Vmax (μmol min^–1 mg^–1) (ERK1; [10]): 0.42 ± 0.03 μmol min^–1 mg^–1 | kcat (min^–1) (ERK1; [10]): 29.9 ± 2.0 min^–1

PQLKPIESSILAQRRVRKL [RSK1]
Kd (JNK): > 100 µM

IKIKKIEDASNPLLLKRRKK [MK2]
Kd (ERK): 19.5 µM | Kd (p38): 0.05 µM | Kd (JNK): > 100 µM
